Results reported in the NIST ThermoML archive (doi:10.1021/je800583r).

Details: 101.33 kPa, Liquid

CCC1COC(=O)O1 (configuration not stated) [1,2-butylene carbonate]
Details	mass density [kg/m3]
283 K	1155.2
293.1 K	1146.6
295.1 K	1144.9
297.1 K	1143.3
299.1 K	1141.7
301.1 K	1140.1
303.1 K	1138.6
